# Data: patent US20090062122A1, “Cotton Growth Regulator” (FMC Corporation, priority 2006, published 2009)
# System: Fall Armyworms (Spodoptera frugiperda)
# Assay: Number of fall armyworms on cotton plants
# Type: in vivo
# Conditions: 15% open boll application; 0.004 lb ai/a; 2 DAA; 3 replicates; insects per plant
# Experimental: The trial was performed on cotton, variety D&PL 555. The formulated test compounds were diluted to the appropriate concentrations with water to which a crop oil concentrate (1% to 2% v/v) or a non-ionic surfactant (0.25% v/v) was added. The application of the test composition as a cotton plant growth regulator was performed using pressurized, over-the-top spray equipment consisting of a research scale boom sprayer. Deposit of the test composition was primarily to the top of the cotton plants, minimizing spray deposition to lower branches, leaves and fruit. The finished spray volume was 10 gallons per acre, with sprayer nozzle design, orientation and nozzle pressures chosen to prevent spray drift. Applications were made at first sign of cotton boll opening and at 15%, 20% and 40% open bolls.
# The experimental design used randomized plots with 1 to 4 treatment rates of test composition and from 1 to 10 replications depending on the test (sees tables below). […]
# Percent desiccation, percent defoliation, percent terminal control and percent open bolls were evaluated at 7 and 14 days after application (DAA) of the test composition. […]
# The presence of fall armyworms (Spodoptera frugiperda) was determined by examining 20 cotton plants within each of 3 replicates of the treatment plots for fall armyworm. The number of insects per plant was calculated by dividing the total number of insects found by 60. […]
smiles,measurement,value
"CCOC(=O)C(Cl)Cc1cc(-n2nc(C)n(C(F)F)c2=O)c(F)cc1Cl (stereo not shown) [carfentrazone-ethyl, ethyl 2-chloro-3-[2-chloro-5-(4-difluoromethyl-3-methyl-5-oxo-4,5-dihydro-[1,2,4]-triazol-1-yl)-4-fluorophenyl]propionate]","Number of insects (Fall Armyworms, Spodoptera frugiperda)",0
